Values quoted from earlier work in patent US20230270709A1, “ANTIVIRAL PHARMACEUTICAL COMPOSITION FOR TOPICAL ADMINISTRATION” (Christian-Albrechts-Universitat Zu Kiel, priority 2020, published 2023).
Where a name gives a salt, the structure may show the parent alone.

Legend:
SARS-CoV-2 = settings: Hoffmann et al. 2020
[1] = biological target: transmembrane protease, serine 2 (TMPRSS2) (Homo sapiens, UniProt O15393); settings: Zhou et al., Antiviral Research 116 (2015)
SARS-CoV = settings: pathogenic animal model for SARS-CoV infection; Zhou et al. 2015

Chain of transmembrane protease, serine 2 (TMPRSS2) (O15393 whole entry): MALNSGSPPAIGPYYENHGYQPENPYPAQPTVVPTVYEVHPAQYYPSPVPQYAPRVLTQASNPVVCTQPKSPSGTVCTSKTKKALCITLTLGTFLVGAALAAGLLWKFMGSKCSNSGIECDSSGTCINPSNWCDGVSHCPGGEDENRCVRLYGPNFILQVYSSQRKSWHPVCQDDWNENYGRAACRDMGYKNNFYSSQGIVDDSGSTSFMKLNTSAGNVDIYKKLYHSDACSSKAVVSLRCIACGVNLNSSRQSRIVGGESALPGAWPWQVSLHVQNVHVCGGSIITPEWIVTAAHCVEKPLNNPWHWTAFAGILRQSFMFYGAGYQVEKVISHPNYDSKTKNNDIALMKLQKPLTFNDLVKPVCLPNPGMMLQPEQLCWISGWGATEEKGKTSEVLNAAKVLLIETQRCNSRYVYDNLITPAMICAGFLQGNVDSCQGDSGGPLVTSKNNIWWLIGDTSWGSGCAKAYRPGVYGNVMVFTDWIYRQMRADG

| SMILES | effect on SARS-CoV-2 infections of lung cells (SARS-CoV-2) | inhibition of TMPRSS2 [1] | antiviral activity in animal model (SARS-CoV) |
| --- | --- | --- | --- |
| N=C(N)c1ccc2cc(OC(=O)c3ccc(N=C(N)N)cc3)ccc2c1 [nafamostat mesylate] | reduce SARS-CoV-2 infections of lung cells |  |  |
| CN(C)C(=O)COC(=O)Cc1ccc(OC(=O)c2ccc(NC(=N)N)cc2)cc1 [camostat mesylate] | reduce SARS-CoV-2 infections of lung cells |  |  |
| CN(C)C(=O)COC(=O)Cc1ccc(OC(=O)c2ccc(NC(=N)N)cc2)cc1 [camostat] |  | inhibit | display antiviral activity |
